In article PMC9558053, “Development of a novel high-throughput screen for the identification of new inhibitors of protein S-acylation” (The Journal of Biological Chemistry, 2022):

Biological target: T1, human zDHHC7 (Homo sapiens, UniProt Q9NXF8)
T1 construct: expressed in transfected cells; host or cells: HEK293T
T1 sequence (Q9NXF8 1-308): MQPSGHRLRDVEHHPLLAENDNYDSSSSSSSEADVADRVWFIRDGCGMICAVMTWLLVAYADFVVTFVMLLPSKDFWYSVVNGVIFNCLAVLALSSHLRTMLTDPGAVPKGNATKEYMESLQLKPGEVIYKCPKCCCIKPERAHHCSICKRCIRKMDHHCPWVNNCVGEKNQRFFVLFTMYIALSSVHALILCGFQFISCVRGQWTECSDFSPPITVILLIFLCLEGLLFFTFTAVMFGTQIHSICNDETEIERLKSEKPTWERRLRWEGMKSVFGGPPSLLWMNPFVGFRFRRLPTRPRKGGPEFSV
Assay: GFP-SNAP25b S-acylation in HEK293T cells co-expressing zDHHC7
Format: cell-based
Conditions: in cellulo HEK293T, compound 25 μM; for inhibition at 25 µM: HEK-293T, read-out: SNAP25 S-acylation inhibition (%), zDHHC7
Procedure: We next investigated whether the identified compounds were effective at inhibiting zDHHC enzyme isoforms other than zDHHC2 (Fig. 6 and Table 1). […] We therefore treated cells coexpressing GFP-SNAP25 and each of these zDHHC enzymes with 25 μM of TTZ-1 and TTZ-2 and studied the subsequent effect on SNAP25 S-acylation. […] Importantly, the level of enzyme expression was unaffected by the compounds. […] As any major differences in the expression levels of the different enzymes could in theory contribute to the apparent differential effects of TTZ-1 and TTZ-2, we directly compared the expression of zDHHC2, zDHHC3, zDHHC7, zDHHC15, and zDHHC17 when transfected in HEK293T cells together with GFP-SNAP25.
Figure 6 Activity of TTZ-1 and TTZ-2 against SNAP25 S-acylation by human zDHHC2, zDHHC3, zDHHC7, zDHHC15, and zDHHC17 expressed in mammalian cells.A–E, HEK293T cells were transfected with a plasmid encoding GFP-SNAP25b together with either a control plasmid pEF-BOS-HA (pEF) or a plasmid encoding either HA-tagged human zDHHC2 (zD2) (A), zDHHC3 (zD3) (B), zDHHC7 (zD7) (C), zDHHC15 (zD15) (D), or zDHHC17 (zD17) (E) for 24 h. Cells were then preincubated for 4 h with TTZ-1 or TTZ-2 (25 μM final) or DMSO control before metabolic labeling with 100 μM C16:0-azide for 4 h. Cells were lysed, and proteins having incorporated C16:0-azide were labeled by click chemistry with an alkyne-IR800 dye. Protein samples were then resolved by SDS-PAGE and transferred to nitrocellulose membranes that were first stained with an infrared-680 total protein stain. Membranes were then destained and probed with an anti-HA antibody (IR680), followed by an anti-GFP antibody (IR680). Representative images are shown, and panels are presented in the following order (from top to bottom): click chemistry signal (Click [IR800]), GFP and HA immunoblots (IR680), and Total Protein Stain (IR680). Positions of the molecular mass markers (in kilodalton) are indicated on the right side of the membranes. Three independent experiments were performed either in duplicate or in triplicate, and the quantification data were gathered on the graphs below each set of membranes. […] Filled circles represent individual samples. […] Filled circles represent individual samples. Statistical analysis (ANOVA) was performed to test whether there was a significant difference between the zDHHC expression of cells treated with DMSO as a control versus similar samples treated with TTZ-1 or TTZ-2 (∗∗p < 0.01). F, samples from A, B, C, D, and E (expressing GFP-SNAP25 and HA-tagged zDHHC enzymes and treated with DMSO) were loaded on an SDS-PAGE gel and transferred to a nitrocellulose membrane. The membrane was probed for the expression of the HA-tagged enzymes with an anti-HA antibody (IR680). […]

SMILES | inhibition at 25 µM [%] | SNAP25 S-acylation inhibition (%), zDHHC7
O=C(Nc1cccc2c1OC(c1nnn[nH]1)CN2)c1ccc(OCCCCc2ccccc2)cc1 (stereo not shown) [TTZ-2, N-(2-(1H-Tetrazol-5-yl)-3,4-dihydro-2H-benzo[b][1,4]oxazin-8-yl)-4-(4-phenylbutoxy)benzamide] | 13 ± 7 | no significant effect
CCCCCCCOc1ccc(C(=O)Nc2cccc3c2OC(c2nnn[nH]2)CN3)cc1 (stereo not shown) [TTZ-1, N-(2-(1H-Tetrazol-5-yl)-3,4-dihydro-2H-benzo[b][1,4]oxazin-8-yl)-4-(heptyloxy)benzamide] | 14 ± 7 | no significant effect
